In patent US9801901B2, “Alginate oligomers for use in overcoming multidrug resistance in bacteria” (priority 2009, dated 2017):
≈ marks a conversion by molar mass, not a printed value. Like-named read-outs stand apart in the source and are kept apart here.

Tests used:
[1] = test system: strains of Klebsiella pneumoniae displaying MDR phenotypes; test: MIC-assay, Mueller-Hinton broth with G-block alginate, 384-well, OD600 (Table 10); assay type: cell-based; details: read-out: MIC
From the text: Minimum inhibitory concentration (MICs) of different antibiotics for strains of Klebsiella pneumoniae displaying MDR phenotypes in the presence of varying concentrations of OligoCF-5/20 (0-10%). (MIC values are expressed in μg ml^−1).

[2] = test system: Staphylococcus aureus (MRSA) U50; test: MIC-assay, Mueller-Hinton broth with G-block alginate, 384-well, OD600 (Table 12); assay type: cell-based; details: MRSA 1040s, U50 MDR, read-out: MIC
From the text: (§1) Minimum inhibitory concentration (MICs) of different antibiotics for strains of Streptococcus oralis and Staphylococcus aureus (MRSA) displaying MDR phenotypes in the presence of varying concentrations of OligoCF-5/20 (0-10%). (MIC values are expressed in μg ml^−1).

Streptococcus oralis = test: as above; assay type: cell-based; details: Streptococcus oralis (5610, V17) MDR, read-out: MIC
From the text: as §1

[3] = test system: Pseudomonas aeruginosa (MDR 301, PSA, V2); test: MIC-assay, Mueller-Hinton broth with G-block alginate, 384-well, OD600; details: Pseudomonas aeruginosa, Table 8, V2
[4] = test system: Pseudomonas aeruginosa (R22, PSA, V1); test: as above
[5] = test system: Burkholderia cepacia (1322, V23); test: as above
[6] = test system: Burkholderia cepacia (LMG18941, ATCC-BAA-246); test: as above
[7] = test system: Acinetobacter lwoffii (6056, V22); test: as above
[8] = test system: Acinetobacter baumannii (Egypt, V9); test: as above
[9] = test system: Acinetobacter baumannii (MDR ACB, Libya, V4); test: as above
[10] = test system: Acinetobacter lwoffii (Egypt, V10); test: as above
[11] = Table 8, G-block (OligoCF-5/20) 0%
[12] = Table 8, G-block (OligoCF-5/20) 2%
[13] = Table 8, G-block (OligoCF-5/20) 6%
[14] = Table 8, G-block (OligoCF-5/20) 10%
[15] = Table 9, G-block (OligoCF-5/20) 0%
[16] = Table 9, G-block (OligoCF-5/20) 2%
[17] = Table 9, G-block (OligoCF-5/20) 6%
[18] = Table 9, G-block (OligoCF-5/20) 10%

MIC ([1]; Klebsiella pneumoniae (5712, Wales, V12) MDR, G-block (OligoCF-5/20) 0%): 128 µg/mL (≈ 153 µM) | MIC ([1]; Klebsiella pneumoniae (5712, Wales, V12) MDR, G-block (OligoCF-5/20) 2%): 64 µg/mL (≈ 76.6 µM) | MIC ([1]; Klebsiella pneumoniae (5712, Wales, V12) MDR, G-block (OligoCF-5/20) 6%): 64 µg/mL (≈ 76.6 µM) | MIC ([1]; Klebsiella pneumoniae (5712, Wales, V12) MDR, G-block (OligoCF-5/20) 10%): 32 µg/mL (≈ 38.3 µM) | MIC ([1]; Klebsiella pneumoniae (IR25, India, V6) MDR, G-block (OligoCF-5/20) 0%): 1020 µg/mL (≈ 1230 µM) | MIC ([1]; Klebsiella pneumoniae (IR25, India, V6) MDR, G-block (OligoCF-5/20) 2%): 1020 µg/mL (≈ 1230 µM) | MIC ([1]; Klebsiella pneumoniae (IR25, India, V6) MDR, G-block (OligoCF-5/20) 6%): 512 µg/mL (≈ 613 µM) | MIC ([1]; Klebsiella pneumoniae (IR25, India, V6) MDR, G-block (OligoCF-5/20) 10%): 256 µg/mL (≈ 307 µM) | MIC ([1]; Klebsiella pneumoniae (K3, India, V8) MDR, G-block (OligoCF-5/20) 0%): 256 µg/mL (≈ 307 µM) | MIC ([1]; Klebsiella pneumoniae (K3, India, V8) MDR, G-block (OligoCF-5/20) 2%): 128 µg/mL (≈ 153 µM) | MIC ([1]; Klebsiella pneumoniae (K3, India, V8) MDR, G-block (OligoCF-5/20) 6%): 128 µg/mL (≈ 153 µM) | MIC ([1]; Klebsiella pneumoniae (K3, India, V8) MDR, G-block (OligoCF-5/20) 10%): 128 µg/mL (≈ 153 µM) | MIC ([2]; G-block (OligoCF-5/20) 0%): 1020 µg/mL (≈ 1230 µM) | MIC ([2]; G-block (OligoCF-5/20) 2%): 512 µg/mL (≈ 613 µM) | MIC ([2]; G-block (OligoCF-5/20) 6%): 512 µg/mL (≈ 613 µM) | MIC ([2]; G-block (OligoCF-5/20) 10%): 256 µg/mL (≈ 307 µM) | MIC (Streptococcus oralis; G-block (OligoCF-5/20) 0%): 4 µg/mL (≈ 4.79 µM) | MIC (Streptococcus oralis; G-block (OligoCF-5/20) 2%): 4 µg/mL (≈ 4.79 µM) | MIC (Streptococcus oralis; G-block (OligoCF-5/20) 6%): < 0.0312 µg/mL | MIC (Streptococcus oralis; G-block (OligoCF-5/20) 10%): 0.0312 µg/mL (≈ 0.0374 µM) | MIC ([3]; G-block (OligoCF-5/20) 0%): > 512 µg/mL | MIC ([3]; G-block (OligoCF-5/20) 2%): > 512 µg/mL | MIC ([3]; G-block (OligoCF-5/20) 6%): 512 µg/mL (≈ 613 µM) | MIC ([3]; G-block (OligoCF-5/20) 10%): 512 µg/mL (≈ 613 µM) | MIC [4, 11]: > 512 µg/mL | MIC [4, 12]: > 512 µg/mL | MIC [4, 13]: 512 µg/mL (≈ 613 µM) | MIC [4, 14]: 256 µg/mL (≈ 307 µM) | MIC [5, 11]: 256 µg/mL (≈ 307 µM) | MIC [5, 12]: 256 µg/mL (≈ 307 µM) | MIC [5, 13]: 128 µg/mL (≈ 153 µM) | MIC [5, 14]: 64 µg/mL (≈ 76.6 µM) | MIC ([6]; ATCCBAA246|LMG18941, Table 8, G-block (OligoCF-5/20) 0%): 512 µg/mL (≈ 613 µM) | MIC ([6]; ATCCBAA246|LMG18941, Table 8, G-block (OligoCF-5/20) 2%): 256 µg/mL (≈ 307 µM) | MIC ([6]; ATCCBAA246|LMG18941, Table 8, G-block (OligoCF-5/20) 6%): 256 µg/mL (≈ 307 µM) | MIC ([6]; ATCCBAA246|LMG18941, Table 8, G-block (OligoCF-5/20) 10%): 256 µg/mL (≈ 307 µM) | MIC [7, 15]: < 2 µg/mL | MIC [7, 16]: < 2 µg/mL | MIC [7, 17]: < 2 µg/mL | MIC [7, 18]: < 2 µg/mL | MIC [8, 15]: 4 µg/mL (≈ 4.79 µM) | MIC [8, 16]: < 1 µg/mL | MIC [8, 17]: < 1 µg/mL | MIC [8, 18]: < 1 µg/mL | MIC [9, 15]: 64 µg/mL (≈ 76.6 µM) | MIC [9, 16]: 8 µg/mL (≈ 9.58 µM) | MIC [9, 17]: 2 µg/mL (≈ 2.39 µM) | MIC [9, 18]: < 1 µg/mL | MIC [10, 15]: < 1 µg/mL | MIC [10, 16]: < 1 µg/mL | MIC [10, 17]: < 1 µg/mL | MIC [10, 18]: < 1 µg/mL
SMILES: CC[C@H]1OC(=O)[C@H](C)[C@@H](O[C@H]2C[C@@](C)(OC)[C@@H](O)[C@H](C)O2)[C@H](C)[C@@H](O[C@@H]2O[C@H](C)C[C@H](N(C)C)[C@H]2O)[C@](C)(O)C[C@@H](C)[C@@H]2N[C@@H](COCCOC)O[C@H]([C@H]2C)[C@]1(C)O [Dirithromycin]
